IC50 data for 6 compounds are collected here from patent US20210253642A1, “CALPAIN MODULATORS AND THERAPEUTIC USES THEREOF BACKGROUND” (Blade Therapeutics, Inc., priority 2018, published 2021).

Type in all cases: biochemical
In one assay the target is T1, Human Calpain 1/NS1 (Homo sapiens, UniProt P07384).
T1 sequence (P07384 1-714): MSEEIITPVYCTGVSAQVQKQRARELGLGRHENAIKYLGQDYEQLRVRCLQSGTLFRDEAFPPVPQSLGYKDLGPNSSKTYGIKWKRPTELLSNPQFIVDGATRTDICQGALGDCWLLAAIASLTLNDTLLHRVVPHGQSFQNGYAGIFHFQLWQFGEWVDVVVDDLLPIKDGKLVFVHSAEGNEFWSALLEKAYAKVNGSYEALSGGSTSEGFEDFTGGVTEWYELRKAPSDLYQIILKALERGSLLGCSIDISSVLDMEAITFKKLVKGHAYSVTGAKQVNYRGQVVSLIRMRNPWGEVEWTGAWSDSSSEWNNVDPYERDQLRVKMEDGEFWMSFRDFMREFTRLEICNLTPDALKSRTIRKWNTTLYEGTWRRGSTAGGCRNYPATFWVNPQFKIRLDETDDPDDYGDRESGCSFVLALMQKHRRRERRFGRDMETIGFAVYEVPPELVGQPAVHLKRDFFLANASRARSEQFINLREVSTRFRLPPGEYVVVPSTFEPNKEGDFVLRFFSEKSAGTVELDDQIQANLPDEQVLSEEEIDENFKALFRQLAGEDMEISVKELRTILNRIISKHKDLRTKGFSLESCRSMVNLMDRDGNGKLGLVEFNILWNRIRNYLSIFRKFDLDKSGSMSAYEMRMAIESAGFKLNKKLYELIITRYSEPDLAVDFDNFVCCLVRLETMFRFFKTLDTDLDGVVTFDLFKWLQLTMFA
T1 sequence (P04632 1-268 partner): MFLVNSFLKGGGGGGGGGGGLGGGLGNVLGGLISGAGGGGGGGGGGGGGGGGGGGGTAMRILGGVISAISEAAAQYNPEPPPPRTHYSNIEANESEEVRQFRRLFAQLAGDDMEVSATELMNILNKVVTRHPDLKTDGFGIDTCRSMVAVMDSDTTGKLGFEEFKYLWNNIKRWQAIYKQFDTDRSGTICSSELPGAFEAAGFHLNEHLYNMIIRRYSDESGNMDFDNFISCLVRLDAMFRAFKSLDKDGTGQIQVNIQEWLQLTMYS
Nature of the assay: Calpain continuous fluorescence (FRET) inhibition assay. As to conditions: Column A; SensoLyte 520 FRET substrate, pH 7.5, 25C. On the procedure:
(§1) Calpain 1, 2, and 9 activity and inhibition thereof was assessed by means of a continuous fluorescence assay. The SensoLyte 520 Calpain substrate (Anaspec Inc.) was optimized for detecting calpain activity. This substrate contains an internally quenched 5-FAM/QXLTM 520 FRET pair. Calpains 1, 2, and 9 cleave the FRET substrate into two separate fragments resulting in an increase of 5-FAM fluorescence that is proportional to calpain activity
(§2) Assays were typically setup in black 384-well plates using automated liquid handling as follows. Calpain assay base buffer typically contains 50 mM Tris, pH 7.5, 100 mM NaCl and 1 mM DTT. Inhibitors were serially diluted in DMSO and used to setup 2× mixtures with calpains in the aforementioned buffer. After incubation at ambient temperature (25C), the reaction was initiated by adding a 2× mix of the fluorescent peptide substrate and CaCl2) (required for in-situ calpain activation) in the same buffer. Reaction progress curve data were typically collected for 10 min using excitation/emission wavelengths of 490 nm/520 nm on SpectraMax i3x or the FLIPR-Tetra plate readers (Molecular Devices Inc.). Reaction rates were calculated from progress curve slopes typically over 1-5 min. Dose response curves (rate vs. log inhibitor concentration) were typically fit to a 4-parameter logistic function to extract IC50 values.

For the next assay, the target named is T2, Human Calpain 2/NS1 (Homo sapiens, UniProt P17655).
T2 sequence (P17655 1-700): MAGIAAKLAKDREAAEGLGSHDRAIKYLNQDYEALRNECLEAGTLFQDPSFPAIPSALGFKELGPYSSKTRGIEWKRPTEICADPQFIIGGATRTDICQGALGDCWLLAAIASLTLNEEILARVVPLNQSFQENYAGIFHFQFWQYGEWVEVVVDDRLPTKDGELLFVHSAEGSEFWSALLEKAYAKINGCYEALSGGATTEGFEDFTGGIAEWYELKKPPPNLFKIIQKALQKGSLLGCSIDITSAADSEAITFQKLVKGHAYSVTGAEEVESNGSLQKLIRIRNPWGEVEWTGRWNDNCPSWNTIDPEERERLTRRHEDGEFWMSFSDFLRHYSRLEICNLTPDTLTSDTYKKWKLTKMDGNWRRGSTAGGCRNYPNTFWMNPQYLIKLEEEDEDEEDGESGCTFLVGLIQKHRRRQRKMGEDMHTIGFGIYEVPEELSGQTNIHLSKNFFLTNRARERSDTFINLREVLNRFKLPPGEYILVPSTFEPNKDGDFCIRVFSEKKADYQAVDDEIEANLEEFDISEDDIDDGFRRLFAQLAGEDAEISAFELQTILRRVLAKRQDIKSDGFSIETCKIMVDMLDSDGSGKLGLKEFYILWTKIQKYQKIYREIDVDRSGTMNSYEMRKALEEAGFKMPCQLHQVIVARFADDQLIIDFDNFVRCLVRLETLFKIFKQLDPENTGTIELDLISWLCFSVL
T2 sequence (P04632 1-268 partner): T1 sequence (P04632 1-268 partner)
Described as above. As to conditions: Column B; SensoLyte 520 FRET substrate, pH 7.5, 25C. On the procedure:
as §1, §2

In the next assay the target is T3, Human Calpain 9/NS1 (Homo sapiens, UniProt O14815).
T3 sequence (O14815 1-690): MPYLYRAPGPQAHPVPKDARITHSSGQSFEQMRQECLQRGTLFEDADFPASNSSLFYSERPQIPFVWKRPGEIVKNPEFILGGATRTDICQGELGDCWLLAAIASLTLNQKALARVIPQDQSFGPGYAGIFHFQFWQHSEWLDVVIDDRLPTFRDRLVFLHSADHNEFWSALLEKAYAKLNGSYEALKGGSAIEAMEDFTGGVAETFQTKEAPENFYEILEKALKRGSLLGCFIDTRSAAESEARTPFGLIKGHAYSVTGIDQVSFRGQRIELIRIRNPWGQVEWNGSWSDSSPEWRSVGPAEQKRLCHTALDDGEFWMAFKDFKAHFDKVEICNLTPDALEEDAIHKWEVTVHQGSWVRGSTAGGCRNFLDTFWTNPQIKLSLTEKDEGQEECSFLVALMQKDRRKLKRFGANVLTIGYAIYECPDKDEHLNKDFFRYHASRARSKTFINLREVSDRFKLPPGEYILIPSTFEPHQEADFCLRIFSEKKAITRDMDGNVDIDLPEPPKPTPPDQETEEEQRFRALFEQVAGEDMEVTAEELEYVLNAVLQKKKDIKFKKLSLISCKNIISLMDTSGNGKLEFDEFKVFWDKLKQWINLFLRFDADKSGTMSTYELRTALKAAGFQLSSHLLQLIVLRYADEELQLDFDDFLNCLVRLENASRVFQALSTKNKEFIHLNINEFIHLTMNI
T3 sequence (P04632 1-268 partner): T1 sequence (P04632 1-268 partner)
The description is as above. As to conditions: Column C; SensoLyte 520 FRET substrate, pH 7.5, 25C. On the procedure: as §1, §2

A further assay has as its target T4, Human Cathepsin B (Homo sapiens, UniProt P07858).
T4 construct: purchased
Nature of the assay: Cathepsin continuous fluorescence inhibition assay. As to conditions: Column D; enzyme 25 nM, substrate 1 uM, pH 5.0, 30 minutes pre-incubation with inhibitor. Here is the method:
(§3) Cathepsin activity and inhibition thereof was assessed by means of a continuous fluorescence assay. All assays were run in 384 well format and utilized peptide substrates that liberate fluorescence upon protease catalyzed cleavage. FLIPR plate readers (Molecular Devices Inc.) were used to monitor reactions and extract initial rates which were then fit (four parameter logistic function) to obtain IC50 values. All enzymes are human. All enzymes and reagents were obtained commercially and are summarized in Tables 1 and 2 below along with assay conditions.

For another assay, the target named is T5, Human Cathepsin K (Homo sapiens, UniProt P43235).
T5 construct: purchased
T5 sequence (P43235 115-329): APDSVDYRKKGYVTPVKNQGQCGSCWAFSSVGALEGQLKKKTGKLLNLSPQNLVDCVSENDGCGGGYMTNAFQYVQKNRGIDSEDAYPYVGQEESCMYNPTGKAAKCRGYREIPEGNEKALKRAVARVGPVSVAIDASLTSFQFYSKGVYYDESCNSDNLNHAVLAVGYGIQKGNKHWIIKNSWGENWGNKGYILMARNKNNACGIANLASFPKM
Nature of the assay: Cathepsin continuous fluorescence inhibition assay. To be noted: Column E; enzyme 10 nM, substrate 1 uM, pH 5.5, 30 minutes pre-incubation with inhibitor. Here is the method: as §3

For the next assay, the target named is T6, Human Cathepsin L (Homo sapiens, UniProt P07711).
T6 construct: purchased
Kind of assay: Cathepsin continuous fluorescence inhibition assay. As to conditions: Column G; enzyme 0.025 nM, substrate 1 uM, pH 6.0, 30 minutes pre-incubation with inhibitor. On the procedure: as §3

For another assay, the target named is T7, Human Cathepsin S (Homo sapiens, UniProt P25774).
T7 construct: purchased
Nature of the assay: Cathepsin continuous fluorescence inhibition assay. As to conditions: Column F; enzyme 6 nM, substrate 1 uM, pH 4.5, 30 minutes pre-incubation with inhibitor. On the procedure:
as §3

T6 sequence (P07711 114-333): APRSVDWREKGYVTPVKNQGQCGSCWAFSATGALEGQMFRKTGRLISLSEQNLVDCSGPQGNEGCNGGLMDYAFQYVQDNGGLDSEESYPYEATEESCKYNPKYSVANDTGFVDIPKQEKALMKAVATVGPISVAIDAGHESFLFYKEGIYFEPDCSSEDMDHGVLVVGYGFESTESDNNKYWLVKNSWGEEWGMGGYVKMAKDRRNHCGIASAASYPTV
T7 sequence (P25774 115-331): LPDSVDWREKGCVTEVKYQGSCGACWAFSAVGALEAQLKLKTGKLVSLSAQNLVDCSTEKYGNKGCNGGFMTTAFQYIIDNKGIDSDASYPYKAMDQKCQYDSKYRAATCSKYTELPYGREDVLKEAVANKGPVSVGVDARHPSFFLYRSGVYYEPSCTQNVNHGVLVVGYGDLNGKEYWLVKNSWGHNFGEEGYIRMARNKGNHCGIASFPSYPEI

The term IC50 denotes the concentration at which inhibition is half-maximal. Lower therefore signals greater potency. In the case of `CC(C)[C@@H]1NC(=O)/C=C/[C@@H](NC(=O)OC(C)(C)C)COC(=O)[C@H](Cc2ccc(O)cc2)NC1=O` [Compound 1, Tert-butyl ((3S,6S,11R,E)-3-(4-Hydroxybenzyl)-6-isopropyl-2,5,8-trioxo-1-oxa-4,7-Diazacyclododec-9-en-11-yl)carbamate], the IC50 is greater than 10 µM against Human Calpain 1/NS1; greater than 10 µM against Human Calpain 2/NS1; greater than 10 µM on Human Calpain 9/NS1; less than 3 µM against Human Cathepsin B; less than 3 µM on Human Cathepsin K; less than 3 µM against Human Cathepsin L. The concentration for half-maximal inhibition (IC50) at Human Cathepsin S is less than 3 µM.

With `CC(C)[C@@H]1NC(=O)/C=C/[C@@H](NC(=O)[C@@H](NC(=O)OC(C)(C)C)C(C)C)COC(=O)[C@H](Cc2ccc(O)cc2)NC1=O` [Compound 2, Tert-butyl ((S)-1-(((3S,6S,11R,E)-3-(4-hydroxybenzyl)-6-isopropyl-2,5,8-trioxo-1-oxa-4,7-diazacyclododec-9-en-11-yl)amino)-3-methyl-1-oxobutan-2-yl)carbamate], the IC50 at Human Calpain 1/NS1 is 3 to 10 µM; on Human Calpain 2/NS1 it was less than 3 µM; at Human Calpain 9/NS1, greater than 10 µM; at Human Cathepsin B it was less than 3 µM; against Human Cathepsin K, less than 3 µM; on Human Cathepsin L, less than 3 µM. This compound also gave an IC50 on Human Cathepsin S of less than 3 µM.

With `CC(C)[C@@H]1NC(=O)/C=C/[C@@H](NC(=O)[C@@H](NC(=O)[C@H](Cc2ccc(O)cc2)NC(=O)OC(C)(C)C)C(C)C)COC(=O)[C@H](Cc2ccc(O)cc2)NC1=O` [Compound 3, Tert-butyl ((S)-1-(((S)-1-(((3S,6S,11R,E)-3-(4-Hydroxybenzyl)-6-isopropyl-2,5,8-trioxo-1-oxa-4,7-diazacyclododec-9-en-11-yl)amino)-3-methyl-1-oxobutan-2-yl)amino)-3-(4-hydroxyphenyl)-1-oxopropan-2-yl)carbamate], the IC50 against Human Calpain 1/NS1 is less than 3 µM; on Human Calpain 2/NS1, less than 3 µM; against Human Calpain 9/NS1 it was greater than 10 µM; against Human Cathepsin B, less than 3 µM; on Human Cathepsin K, less than 3 µM; against Human Cathepsin L, less than 3 µM. The compound further showed a 50% inhibitory concentration (IC50) against Human Cathepsin S of less than 3 µM.

Consider `CC(C)[C@@H]1NC(=O)/C=C/[C@@H](N)COC(=O)[C@H](Cc2ccc(O[Si](C)(C)C(C)(C)C)cc2)NC1=O` [Compound 4, (3S,6S,11R,E)-11-amino-3-(4-((tert-butyldimethylsilyl)oxy)benzyl)-6-isopropyl-1-oxa-4,7-diazacyclododec-9-ene-2,5,8-trione], for which the IC50 against Human Calpain 1/NS1 was greater than 10 µM; on Human Calpain 2/NS1 it was greater than 10 µM; against Human Calpain 9/NS1 it was greater than 10 µM; at Human Cathepsin B, greater than 10 µM; against Human Cathepsin K, less than 3 µM; at Human Cathepsin L, 3 to 10 µM. Besides, at Human Cathepsin S, the IC50 lay in the range of 3 to 10 µM.

For `CC(C)[C@@H]1NC(=O)/C=C/[C@@H](NC(=O)OC(C)(C)C)COC(=O)[C@H](Cc2ccccc2)NC1=O` [Compound 5, Tert-butyl ((3S,6S,11R,E)-3-benzyl-6-isopropyl-2,5,8-trioxo-1-oxa-4,7-diazacyclododec-9-en-11-yl)carbamate], the IC50 at Human Calpain 1/NS1 was greater than 10 µM; at Human Calpain 2/NS1, greater than 10 µM; against Human Calpain 9/NS1, greater than 10 µM; on Human Cathepsin B, 3 to 10 µM; against Human Cathepsin K, less than 3 µM; at Human Cathepsin L, less than 3 µM. In addition, the IC50 against Human Cathepsin S is less than 3 µM.

`CC(C)[C@@H]1NC(=O)/C=C/[C@@H](NC(=O)[C@@H](NC(=O)[C@H](Cc2ccccc2)NC(=O)OC(C)(C)C)C(C)C)COC(=O)[C@H](Cc2ccc(O)cc2)NC1=O` [Compound 6]: the IC50 on Human Calpain 1/NS1 was less than 3 µM; against Human Calpain 2/NS1, less than 3 µM; on Human Calpain 9/NS1 it was greater than 10 µM; against Human Cathepsin B, less than 3 µM; against Human Cathepsin K, less than 3 µM; at Human Cathepsin L, less than 3 µM. The IC50 against Human Cathepsin S is less than 3 µM.
